Series [1] relates to KM12. Kind of series: Antitumor activity against human KM12 cells. The series is classed as functional, cell-based.
Series [2] deals with SNB-19. Kind of series: Antitumor activity against human SNB19 cells. The series is classed as functional, cell-based.
Series [3] has as its system COLO 205. Description: Antitumor activity against human COLO205 cells. It is filed as functional, cell-based.
Series [4] concerns SF-268. Kind of series: Antitumor activity against human SF268 cells. The series is classed as functional, cell-based.
Series [5] deals with HCC 2998. Description: Antitumor activity against human HCC2998 cells. It is filed as functional, cell-based.
The test system of series [6] is SK-MEL-5. Kind of series: Antitumor activity against human SK-MEL-5 cells. The series is classed as functional, cell-based.
Series [7] relates to TK-10. Description: Antitumor activity against human TK10 cells. It is filed as functional, cell-based.
Series [8] has as its system CCRF-CEM. Description: Cytotoxicity against human CEM cells at 6.4 ug/disk by disk diffusion soft agar colony formation assay. It is filed as functional.
Series [9] has as its system MC-38. Description: Cytotoxicity against mouse C38 cells at 6.4 ug/disk by disk diffusion soft agar colony formation assay. The series is classed as functional.
Series [10] relates to UACC-257. Kind of series: Antitumor activity against human UACC257 cells. The series is classed as functional, cell-based.
Series [11] relates to MCF7. Description: Antitumor activity against human MCF7 cells. It is filed as functional, cell-based.
For series [12], the system named is SK-MEL-28. Description: Antitumor activity against human SK-MEL-28 cells. The series is classed as functional, cell-based.
Series [13] has as its system HCT-15. Description: Antitumor activity against human HCT15 cells. The series is classed as functional, cell-based.
Series [14] has as its system NCI-H322M. Description: Antitumor activity against human NCI-H322M cells. It is filed as functional, cell-based.
Series [15] deals with K562. Kind of series: Antitumor activity against human K562 cells. The series is classed as functional, cell-based.
The subject of series [16] is EKVX. Kind of series: Antitumor activity against human EKVX cells. It is filed as functional, cell-based.
Series [17] concerns PC-3. Description: Antitumor activity against human PC3 cells. It is filed as functional, cell-based.
The subject of series [18] is HOP-62. Kind of series: Antitumor activity against human HOP62 cells. The series is classed as functional, cell-based.
Series [19] deals with NCI-H460. Kind of series: Antitumor activity against human NCI-H460 cells. It is filed as functional, cell-based.
The subject of series [20] is Malme-3M. Kind of series: Antitumor activity against human MALME-3M cells. The series is classed as functional, cell-based.
Series [21] has as its system SF-295. Description: Antitumor activity against human SF295 cells. The series is classed as functional, cell-based.
Series [22] concerns BT-549. Kind of series: Antitumor activity against human BT549 cells. It is filed as functional, cell-based.
Series [23] is described as follows: Antitumor activity against human 786-O cells. It is filed as functional, cell-based. The settings on record: 786-0.
Series [24] has as its system RXF 393. Kind of series: Antitumor activity against human RXF393 cells. It is filed as functional, cell-based.
Series [25] deals with NCI-H226. Description: Antitumor activity against human NCI-H226 cells. The series is classed as functional, cell-based.
Series [26] deals with OVCAR-8. Description: Antitumor activity against human OVCAR8 cells. It is filed as functional, cell-based.
Series [27] concerns HCT-116. Kind of series: Antitumor activity against human HCT116 cells. The series is classed as functional, cell-based.
Series [28] relates to U-251. Description: Antitumor activity against human U251 cells. It is filed as functional, cell-based.
For series [29], the system named is OVCAR-3. Description: Antitumor activity against human OVCAR-3 cells. It is filed as functional, cell-based.
In series [30] the test system is SK-OV-3. Kind of series: Antitumor activity against human SKOV3 cells. The series is classed as functional, cell-based.
The subject of series [31] is OVCAR-4. Kind of series: Antitumor activity against human OVCAR4 cells. The series is classed as functional, cell-based.
The nature of series [32]: Cytotoxicity against human H125 cells at 6.4 ug/disk by disk diffusion soft agar colony formation assay. It is filed as functional.
Series [33] deals with MDA-MB-435. Description: Antitumor activity against human MDA-MB-435 cells. The series is classed as functional, cell-based.
Series [34] is described as follows: Antitumor activity against human Hs 578T cells. It is filed as functional, cell-based.
Series [35] deals with IGROV-1. Kind of series: Antitumor activity against human IGROV1 cells. It is filed as functional, cell-based.
The subject of series [36] is SNB-75. Description: Antitumor activity against human SNB75 cells. It is filed as functional, cell-based.
In series [37] the test system is OVCAR-5. Description: Antitumor activity against human OVCAR5 cells. The series is classed as functional, cell-based.
For series [38], the system named is L1210. Description: Cytotoxicity against mouse L1210 cells 6.4 ug/disk by disk diffusion soft agar colony formation assay. It is filed as functional.
Series [39] concerns NCI-H23. Kind of series: Antitumor activity against human NCI-H23 cells. It is filed as functional, cell-based.
Series [40] deals with SR. Kind of series: Antitumor activity against human SR cells. It is filed as functional, cell-based.
Series [41] relates to MCF7. Kind of series: Antitumor activity against […] human MCF7 cells. The series is classed as functional, cell-based.
Series [42] has as its system UO-31. Description: Antitumor activity against human UO31 cells. The series is classed as functional, cell-based.
In series [43] the test system is UACC-62. Kind of series: Antitumor activity against human UACC62 cells. The series is classed as functional, cell-based.
Series [44] concerns LOX IMVI. Kind of series: Antitumor activity against human LOXIMVI cells. It is filed as functional, cell-based.
Series [45] concerns NCI-H522. Kind of series: Antitumor activity against human NCI-H522 cells. The series is classed as functional, cell-based.
The subject of series [46] is CAKI-1. Description: Antitumor activity against human Caki1 cells. It is filed as functional, cell-based.
Series [47] deals with SW-620. Description: Antitumor activity against human SW620 cells. It is filed as functional, cell-based.
The subject of series [48] is A498. Description: Antitumor activity against human A498 cells. It is filed as functional, cell-based.
Series [49] concerns HOP-92. Kind of series: Antitumor activity against human HOP92 cells. The series is classed as functional, cell-based.
Series [50] concerns ACHN. Description: Antitumor activity against human ACHN cells. The series is classed as functional, cell-based.
In series [51] the test system is A549. Description: Antitumor activity against human A549/ATCC cells. The series is classed as functional, cell-based.
In series [52] the test system is T47D. Description: Antitumor activity against human T47D cells. It is filed as functional, cell-based.
Series [53] can be described thus: Cytotoxicity against mouse CFU-GM cells at 6.4 ug/disk by disk diffusion soft agar colony formation assay. It is filed as cell-based.
Series [54] concerns SN12C. Kind of series: Antitumor activity against human SN12C cells. The series is classed as functional, cell-based.
Series [55] has as its system MOLT-4. Description: Antitumor activity against human MOLT4 cells. It is filed as functional, cell-based.
Series [56] in a line: Cytotoxicity against human H116 cells at 6.4 ug/disk by disk diffusion soft agar colony formation assay. It is filed as functional.
Series [57] has as its system M14. Kind of series: Antitumor activity against human M14 cells. It is filed as functional, cell-based.
Series [58] has as its system HL-60(TB). Kind of series: Antitumor activity against human HL-60(TB) cells. It is filed as functional, cell-based.
Series [59] has as its system RPMI-8226. Description: Antitumor activity against human RPMI8226 cells. It is filed as functional, cell-based.
Series [60] in a line: Cytotoxicity against human H125 cells at 64 ug/disk by disk diffusion soft agar colony formation assay. The series is classed as functional.
In series [61] the test system is L1210. Description: Cytotoxicity against mouse L1210 cells at 64 ug/disk by disk diffusion soft agar colony formation assay. The series is classed as functional.
Series [62] concerns CCRF-CEM. Description: Cytotoxicity against human CEM cells at 64 ug/disk by disk diffusion soft agar colony formation assay. The series is classed as functional.
A short description of series [63]: Cytotoxicity against human H116 cells at 64 ug/disk by disk diffusion soft agar colony formation assay. The series is classed as functional.
The subject of series [64] is MC-38. Description: Cytotoxicity against mouse C38 cells at 64 ug/disk by disk diffusion soft agar colony formation assay. The series is classed as functional.

Each structure is given as a SMILES string.

As for `O=C1c2ccc(Br)cc2-[n+]2ccc3c([nH]c4ccccc43)c21.[Cl-]`, the IC50 is 8.5 µM in series [1]; 0.66 µM in series [2]; above 10 µM in [3]; 5.6 µM in series [4]; 0.91 µM in [5]; above 10 µM in series [6]. The IC50 in series [7] was above 10 µM; in series [10], 5.3 µM; in series [11] it was 0.93 µM; in series [12], 1.3 µM; in series [13], above 10 µM; in series [14], 0.65 µM. In addition, the IC50 in series [15] was above 10 µM; in series [16], 3.6 µM; in [17], above 10 µM; in series [18] it was above 10 µM; in [19], above 10 µM; in [20] it was 0.49 µM. The IC50 in series [21] came out at 0.59 µM; in [22], 0.59 µM; in series [23], 7.1 µM; in [24], 3.1 µM; in series [25], 5.3 µM; in series [26], 0.6 µM. Further, the IC50 was 0.76 µM in series [27]; above 10 µM in series [28]; 4.4 µM in [29]; above 10 µM in series [30]; 0.59 µM in [31]; above 10 µM in series [33]. For the same compound, the half-inhibitory concentration (IC50) was 0.59 µM in series [34]; 0.74 µM in series [35]; 3.8 µM in series [36]; above 10 µM in series [37]; 0.89 µM in series [39]; above 10 µM in [40]. Moreover, the IC50 is 5.3 µM in series [41]; 0.53 µM in series [42]; 0.63 µM in [43]; above 10 µM in [44]; 0.68 µM in series [45]; 1.6 µM in series [46]. The IC50 in [47], in [48], in [49], in [50], in series [51] and in [52] was above 10 µM in each case. Also, the IC50 was 2.9 µM in series [54]; above 10 µM in [55]; 0.59 µM in [57]; above 10 µM in series [58]; above 10 µM in series [59]. Also, the Activity in series [8] came to 400 Zone units; in series [9] it was 400 Zone units; in series [32], 550 Zone units; in [38] it was 500 Zone units; in series [53], 400 Zone units; in series [56], 600 Zone units.

As for `Oc1ccccc1-[n+]1ccc2c(c1)[nH]c1ccccc12.[Cl-]` [RETICULATOL], the Activity in series [60] is reported as 400 Zone units; in [61], 200 Zone units; in series [62], above 1000 Zone units; in series [63], 100 Zone units; in series [64] it was 200 Zone units.

As for `O=C(O)c1ccc(Br)cc1-[n+]1ccc2c(c1)[nH]c1ccccc12.[Cl-]`, the Activity in [60] came to 0 Zone units; in series [61], 100 Zone units; in [63], 0 Zone units; in [64], 250 Zone units.

The values above are taken from ChEMBL document CHEMBL1151200, “Comparison of fascaplysin and related alkaloids: a study of structures, cytotoxicities, and sources” (J Nat Prod, 2004).
